How the values were obtained:
Y5R [1] = conditions: still binds Y5R but not other Y receptors; cited from earlier work
A^4.67-Y5R = target: T1, A^4.67-Y5R (Homo sapiens, UniProt Q15761, V181A); type: cell-based; conditions: Figure 6C; transiently transfected COS-7
T1 sequence (Q15761 1-445 V181A): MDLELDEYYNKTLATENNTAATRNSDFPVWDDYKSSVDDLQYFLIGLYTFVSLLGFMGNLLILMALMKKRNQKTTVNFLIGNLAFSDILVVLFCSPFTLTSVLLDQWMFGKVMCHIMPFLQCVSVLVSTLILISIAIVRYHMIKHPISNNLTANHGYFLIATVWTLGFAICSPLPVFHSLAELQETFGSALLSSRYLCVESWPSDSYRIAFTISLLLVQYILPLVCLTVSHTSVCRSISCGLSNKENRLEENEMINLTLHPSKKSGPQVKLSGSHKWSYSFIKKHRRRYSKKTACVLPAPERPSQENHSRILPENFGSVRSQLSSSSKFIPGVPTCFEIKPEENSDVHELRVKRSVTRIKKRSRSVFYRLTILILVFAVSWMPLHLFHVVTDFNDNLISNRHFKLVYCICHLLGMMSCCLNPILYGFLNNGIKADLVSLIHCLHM

Y5R [2] = assay: Calcium flux assay of NPY analogs; type: cell-based; conditions: Figure 3B-C, at least two independent experiments in triplicates

| Substance | Potency loss at wt Y5R compared to NPY (Y5R [2]) [fold] | further results |
| --- | --- | --- |
| T32P-NPY: NPY with Thr32 substituted to Pro |  | Receptor selectivity (Y5R [1]): selective Y5R agonist |
| A^28-NPY: NPY analog carrying Ala at position 28 |  | Potency at A^4.67-Y5R compared to wt NPY (A^4.67-Y5R): lower potency |
| [Y^36A]-NPY: NPY with Y^36 substituted by Ala | 43 |  |
| W^36-NPY: NPY with Y^36 substituted by Trp | 2 |  |

Reference: article PMC8766924 (Angewandte Chemie (International ed. in English), 2021)
